# Measured values from patent US12077503B2, “Substituted cyclic amides and their use as herbicides” (FMC CORPORATION, priority 2015, dated 2024).
# Assays:
# Assay type in all cases: in vivo
# [1] = system: giant foxtail (Setaria faberii); assay: Test A preemergence
# In short: (§1)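 In a loam soil and sand blend, planted seeds got a preemergence directed soil spray, and young plants at the one- to two-leaf stage, 2–10 cm high, got a postemergence application; ~10 d greenhouse hold; injury rated visually, 0 = none, 100 = complete control.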
# [2] = system: barnyardgrass (Echinochloa crus-galli); assay: Test A preemergence
# In short: as §1
# [3] = system: ryegrass, Italian (Italian ryegrass, Lolium multiflorum); assay: Test A preemergence
# In short: as §1
# [4] = system: ragweed (common ragweed, Ambrosia elatior); assay: Test A preemergence
# In short: as §1
# [5] = system: pigweed (Amaranthus retroflexus); assay: Test A preemergence
# Kochia (Kochia scoparia) [6] = assay: Test A preemergence
# In short: as §1
# [7] = system: ducksalad (Heteranthera limosa); assay: Test B flooded paddy test; conditions: Flood, 250 g ai/ha; 0 to 100 scale where 0 is no effect and 100 is complete control; 13 to 15 d
# In short: (§2)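 Flooding to 3 cm over soil accompanied treatment, which consisted of adding compound to the standing water around 2-leaf plants; depth was then maintained. Visual assessment versus controls followed at 13 to 15 d (scale 0–100, 0 meaning no effect).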
# [8] = system: barnyardgrass (Echinochloa crus-galli); assay: Test B flooded paddy test; conditions: Flood, 250 g ai/ha; 0 to 100 scale where 0 is no effect and 100 is complete control; 13 to 15 d
# In short: as §2
# rice (Oryra sativa) = assay: Test B flooded paddy test; conditions: Flood, 250 g ai/ha; 0 to 100 scale where 0 is no effect and 100 is complete control; 13 to 15 d
# In short: as §2
# [9] = system: sedge, umbrella (small-flower umbrella sedge, Cyperus difformis); assay: Test B flooded paddy test; conditions: Flood, 250 g ai/ha; 0 to 100 scale where 0 is no effect and 100 is complete control; 13 to 15 d
# In short: as §2
# corn (Zea mays) = assay: Test A postemergence; conditions: postemergence, 0 to 100 scale (0 no effect, 100 complete control)
# In short: as §1
# [10] = system: giant foxtail (Setaria faberii); assay: Test A postemergence; conditions: postemergence, 0 to 100 scale (0 no effect, 100 complete control)
# In short: as §1
# [11] = system: Galium (catchweed bedstraw, Galium aparine); assay: Test A postemergence; conditions: postemergence, 0 to 100 scale (0 no effect, 100 complete control)
# In short: as §1
# [12] = system: barnyardgrass (Echinochloa crus-galli); assay: Test A postemergence; conditions: postemergence, 0 to 100 scale (0 no effect, 100 complete control)
# In short: as §1
# [13] = system: blackgrass (Alopecurus myosuroides); assay: Test A postemergence; conditions: postemergence, 0 to 100 scale (0 no effect, 100 complete control)
# In short: as §1
# [14] = system: wheat (Triticum aestivum); assay: Test A postemergence; conditions: postemergence, 0 to 100 scale (0 no effect, 100 complete control)
# In short: as §1
# [15] = system: ryegrass, Italian (Italian ryegrass, Lolium multiflorum); assay: Test A postemergence; conditions: postemergence, 0 to 100 scale (0 no effect, 100 complete control)
# In short: as §1
# [16] = system: ragweed (common ragweed, Ambrosia elatior); assay: Test A postemergence; conditions: postemergence, 0 to 100 scale (0 no effect, 100 complete control)
# In short: as §1
# [17] = system: pigweed (Amaranthus retroflexus); assay: Test A postemergence; conditions: postemergence, 0 to 100 scale (0 no effect, 100 complete control)
# In short: as §1
# Kochia (Kochia scoparia) [18] = assay: Test A postemergence; conditions: postemergence, 0 to 100 scale (0 no effect, 100 complete control)
# In short: as §1
# [19] = 125 g ai/ha, Preemergence, visual injury after approximately 10 d, 0 to 100 scale where 0 is no effect and 100 is complete control
# [20] = 500 g ai/ha, preemergence, 0 to 100 scale, 0 = no effect, 100 = complete control
# [21] = 125 g ai/ha, visual rating after approx. 10 d
# [22] = 500 g ai/ha, visual injury, approx. 10 d
structure (smiles),measurement,setting,value
CN1CC(c2cc(F)cc(F)c2)C(C(=O)Nc2cccc(F)c2F)C1=O (stereo not drawn) [Compound 644],"Plant response rating, Foxtail, Giant",[1]; [19],90
same,"Plant response rating, Foxtail, Giant",[1]; [20],90
same,"Plant response rating, Barnyardgrass",[2]; [19],90
same,"Plant response rating, Barnyardgrass",[2]; [20],90
same,"Plant response rating, Ryegrass, Italian",[3]; [19],60
same,"Plant response rating, Ryegrass, Italian",[3]; [20],90
same,"Plant response rating, Ragweed",[4]; [19],50
same,"Plant response rating, Ragweed",[4]; [20],60
same,"Plant response rating, Pigweed",[5]; [19],60
same,"Plant response rating, Pigweed",[5]; [20],70
same,"Plant response rating, Kochia",Kochia (Kochia scoparia) [6]; [19],50
same,"Plant response rating, Kochia",Kochia (Kochia scoparia) [6]; [20],80
same,"Plant response rating, Ducksalad",[7],98
same,"Plant response rating, Barnyardgrass",[8],85
same,"Plant response rating, Rice",rice (Oryra sativa),15
same,"Plant response rating, Sedge, Umbrella",[9],0
same,"Plant response rating, Corn",corn (Zea mays); [21],70
same,"Plant response rating, Corn",corn (Zea mays); [22],80
same,"Plant response rating, Foxtail, Giant",[10]; [21],90
same,"Plant response rating, Foxtail, Giant",[10]; [22],90
same,"Plant response rating, Galium",[11]; [21],50
same,"Plant response rating, Galium",[11]; [22],60
same,"Plant response rating, Barnyardgrass",[12]; [21],90
same,"Plant response rating, Barnyardgrass",[12]; [22],90
same,"Plant response rating, Blackgrass",[13]; [21],60
same,"Plant response rating, Blackgrass",[13]; [22],70
same,"Plant response rating, Wheat",[14]; [21],50
same,"Plant response rating, Wheat",[14]; [22],80
same,"Plant response rating, Ryegrass, Italian",[15]; [21],50
same,"Plant response rating, Ryegrass, Italian",[15]; [22],80
same,"Plant response rating, Ragweed",[16]; [21],0
same,"Plant response rating, Ragweed",[16]; [22],40
same,"Plant response rating, Pigweed",[17]; [21],20
same,"Plant response rating, Pigweed",[17]; [22],30
same,"Plant response rating, Kochia",Kochia (Kochia scoparia) [18]; [21],20
same,"Plant response rating, Kochia",Kochia (Kochia scoparia) [18]; [22],70
